Results: ChEMBL document CHEMBL1132739, “Pyrrolo[2,3-d]pyrimidines containing an extended 5-substituent as potent and selective inhibitors of lck I” (Bioorg Med Chem Lett, 2000)
Each block holds one compound with its values, some of them ahead of it.

How the values were obtained:
[1] = biological target: T1, Tyrosine-protein kinase Lck (Homo sapiens, UniProt P06239)
Description: Inhibition of p56 Lck tyrosine kinase at 5 uM ATP

Jurkat [2] = test: Inhibition of MLR stimulated IL-2 production in Jurkat cells; type: functional, cell-based; conditions: Homo sapiens
Jurkat [3] = test: Inhibition of anti-CD3 stimulated IL-2 production by Jurkat cells; type: functional, cell-based; conditions: Homo sapiens
[4] = biological target: T1, Tyrosine-protein kinase Lck; remark: listed apart in the source
Description: Inhibition of p56 Lck tyrosine kinase at 1 mM ATP

[5] = biological target: T1, Tyrosine-protein kinase Lck; remark: listed apart in the source
Description: Inhibition of p56 Lck tyrosine kinase catalytic domain at 5 uM ATP

Protein kinase C (PKC) = test: Inhibition of PKC; type: protein assay
[6] = biological target: Vascular endothelial growth factor receptor 2 (Homo sapiens, UniProt P35968)
Sequence of Vascular endothelial growth factor receptor 2 (P35968 whole entry): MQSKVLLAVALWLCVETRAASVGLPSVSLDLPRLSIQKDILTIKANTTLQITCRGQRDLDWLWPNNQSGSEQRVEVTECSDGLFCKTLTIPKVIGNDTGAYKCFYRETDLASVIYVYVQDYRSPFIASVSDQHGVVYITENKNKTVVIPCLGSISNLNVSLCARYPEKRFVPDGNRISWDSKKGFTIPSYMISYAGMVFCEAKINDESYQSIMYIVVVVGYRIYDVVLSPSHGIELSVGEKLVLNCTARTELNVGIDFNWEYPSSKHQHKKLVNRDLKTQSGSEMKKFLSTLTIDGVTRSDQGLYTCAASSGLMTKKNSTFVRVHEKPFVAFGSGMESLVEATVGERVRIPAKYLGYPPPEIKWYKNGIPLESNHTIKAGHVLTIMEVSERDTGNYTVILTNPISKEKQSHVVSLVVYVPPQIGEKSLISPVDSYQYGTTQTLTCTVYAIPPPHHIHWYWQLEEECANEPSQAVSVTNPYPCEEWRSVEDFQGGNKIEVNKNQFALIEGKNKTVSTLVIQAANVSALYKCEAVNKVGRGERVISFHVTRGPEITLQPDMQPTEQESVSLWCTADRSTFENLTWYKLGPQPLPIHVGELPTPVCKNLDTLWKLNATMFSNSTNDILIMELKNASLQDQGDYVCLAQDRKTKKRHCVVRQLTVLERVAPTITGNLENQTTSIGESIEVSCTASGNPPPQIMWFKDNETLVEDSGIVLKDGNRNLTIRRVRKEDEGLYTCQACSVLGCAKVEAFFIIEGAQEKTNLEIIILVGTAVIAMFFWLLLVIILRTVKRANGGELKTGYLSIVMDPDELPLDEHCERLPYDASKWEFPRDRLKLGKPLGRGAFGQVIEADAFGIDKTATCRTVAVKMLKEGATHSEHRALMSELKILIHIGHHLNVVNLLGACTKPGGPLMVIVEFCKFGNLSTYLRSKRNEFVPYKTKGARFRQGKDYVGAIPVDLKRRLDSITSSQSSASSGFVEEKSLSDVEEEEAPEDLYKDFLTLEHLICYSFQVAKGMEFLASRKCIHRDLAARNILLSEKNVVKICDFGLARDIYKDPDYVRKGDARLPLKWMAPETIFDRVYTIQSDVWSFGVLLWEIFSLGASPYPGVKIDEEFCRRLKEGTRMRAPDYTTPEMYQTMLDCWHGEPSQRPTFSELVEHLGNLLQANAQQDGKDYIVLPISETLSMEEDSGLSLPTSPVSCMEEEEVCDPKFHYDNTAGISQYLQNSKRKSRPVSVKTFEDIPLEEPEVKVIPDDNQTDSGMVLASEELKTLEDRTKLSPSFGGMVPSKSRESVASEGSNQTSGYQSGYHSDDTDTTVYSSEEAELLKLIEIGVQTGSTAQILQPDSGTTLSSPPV
Description: Inhibition of Vascular endothelial growth factor receptor 2 at 5 uM ATP

[7] = biological target: Proto-oncogene tyrosine-protein kinase Src (Homo sapiens, UniProt P12931)
Sequence of Proto-oncogene tyrosine-protein kinase Src (P12931 2-536 limits assumed): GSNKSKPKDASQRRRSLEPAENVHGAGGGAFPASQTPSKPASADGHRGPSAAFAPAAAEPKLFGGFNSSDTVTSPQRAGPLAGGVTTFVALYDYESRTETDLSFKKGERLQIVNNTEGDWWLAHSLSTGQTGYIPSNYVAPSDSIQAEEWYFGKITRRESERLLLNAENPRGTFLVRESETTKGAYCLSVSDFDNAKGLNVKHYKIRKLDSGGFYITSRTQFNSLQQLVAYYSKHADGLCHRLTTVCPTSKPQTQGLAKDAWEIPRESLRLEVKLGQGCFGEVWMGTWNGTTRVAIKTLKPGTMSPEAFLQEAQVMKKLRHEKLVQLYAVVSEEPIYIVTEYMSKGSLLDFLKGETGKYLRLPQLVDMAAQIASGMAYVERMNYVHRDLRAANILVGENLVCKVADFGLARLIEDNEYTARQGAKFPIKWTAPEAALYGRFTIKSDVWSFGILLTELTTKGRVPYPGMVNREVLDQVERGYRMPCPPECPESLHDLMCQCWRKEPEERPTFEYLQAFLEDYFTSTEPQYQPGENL
Description: Inhibition of src at 5 mM ATP

[8] = biological target: Cyclin-dependent kinase 1/cyclin B (Homo sapiens, UniProt P06493); test: Inhibition of CDC2/CyB; type: protein-complex assay
[9] = biological target: T2, Tyrosine-protein kinase ZAP-70 (Homo sapiens, UniProt P43403); test: Inhibition of Zap 70
T2 sequence (P43403 whole entry): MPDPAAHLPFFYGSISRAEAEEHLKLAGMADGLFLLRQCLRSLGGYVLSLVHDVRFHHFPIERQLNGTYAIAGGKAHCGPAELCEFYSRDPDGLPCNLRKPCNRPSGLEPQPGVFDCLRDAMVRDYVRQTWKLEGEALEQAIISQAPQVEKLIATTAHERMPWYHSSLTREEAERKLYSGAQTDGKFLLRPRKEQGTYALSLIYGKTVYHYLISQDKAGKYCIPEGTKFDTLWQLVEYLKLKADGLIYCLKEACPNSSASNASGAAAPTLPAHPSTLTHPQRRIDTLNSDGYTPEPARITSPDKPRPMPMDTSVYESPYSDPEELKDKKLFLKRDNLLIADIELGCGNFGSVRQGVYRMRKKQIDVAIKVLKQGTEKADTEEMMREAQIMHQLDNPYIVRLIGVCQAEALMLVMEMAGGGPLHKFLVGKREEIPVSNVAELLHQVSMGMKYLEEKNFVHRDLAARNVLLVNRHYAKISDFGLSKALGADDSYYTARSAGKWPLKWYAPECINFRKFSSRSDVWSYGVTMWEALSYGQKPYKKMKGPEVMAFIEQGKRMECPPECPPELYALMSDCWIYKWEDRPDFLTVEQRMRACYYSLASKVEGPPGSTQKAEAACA

[10] = biological target: T1, Tyrosine-protein kinase Lck; remark: listed apart in the source
Description: Inhibition of p56 Lck tyrosine kinase catalytic domain at 1 mM ATP

Jurkat [11] = test: Inhibition of PMA stimulated IL-2 production in Jurkat cells; type: functional, cell-based; conditions: Homo sapiens
Angiopoietin-1 receptor = Angiopoietin-1 receptor (Homo sapiens, UniProt Q02763)
Sequence of Angiopoietin-1 receptor (Q02763 whole entry): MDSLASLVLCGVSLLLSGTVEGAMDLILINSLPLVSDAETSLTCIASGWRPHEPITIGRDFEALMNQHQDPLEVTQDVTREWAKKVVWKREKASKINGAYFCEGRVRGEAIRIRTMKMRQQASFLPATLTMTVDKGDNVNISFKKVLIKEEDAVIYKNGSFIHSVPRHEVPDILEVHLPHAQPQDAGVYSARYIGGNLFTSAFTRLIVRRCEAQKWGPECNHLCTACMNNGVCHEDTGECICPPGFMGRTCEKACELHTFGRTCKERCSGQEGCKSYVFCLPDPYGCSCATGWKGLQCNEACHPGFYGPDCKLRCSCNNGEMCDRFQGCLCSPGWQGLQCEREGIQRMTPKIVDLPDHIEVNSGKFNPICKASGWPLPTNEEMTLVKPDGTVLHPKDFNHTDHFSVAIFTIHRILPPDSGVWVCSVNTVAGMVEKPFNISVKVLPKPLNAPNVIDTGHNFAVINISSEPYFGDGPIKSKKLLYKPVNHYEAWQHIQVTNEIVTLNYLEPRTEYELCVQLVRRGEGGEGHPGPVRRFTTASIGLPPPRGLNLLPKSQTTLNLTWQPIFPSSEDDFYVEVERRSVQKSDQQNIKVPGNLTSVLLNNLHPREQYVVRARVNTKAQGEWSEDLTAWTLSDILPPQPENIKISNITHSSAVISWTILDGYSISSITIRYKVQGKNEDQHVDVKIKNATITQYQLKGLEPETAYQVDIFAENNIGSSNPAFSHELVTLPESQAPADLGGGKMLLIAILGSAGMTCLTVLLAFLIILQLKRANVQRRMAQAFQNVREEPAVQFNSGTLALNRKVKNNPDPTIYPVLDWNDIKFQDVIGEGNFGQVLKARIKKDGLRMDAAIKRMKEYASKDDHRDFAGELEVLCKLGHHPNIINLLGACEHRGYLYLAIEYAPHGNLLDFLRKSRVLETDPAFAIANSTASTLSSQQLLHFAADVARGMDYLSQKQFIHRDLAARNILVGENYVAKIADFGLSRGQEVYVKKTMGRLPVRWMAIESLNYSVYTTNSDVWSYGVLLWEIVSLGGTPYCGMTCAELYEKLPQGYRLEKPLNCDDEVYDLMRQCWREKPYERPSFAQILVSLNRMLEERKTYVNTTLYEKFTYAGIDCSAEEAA
Description: Inhibition of tie-2 at 5 uM ATP

T1 sequence (P06239 whole entry): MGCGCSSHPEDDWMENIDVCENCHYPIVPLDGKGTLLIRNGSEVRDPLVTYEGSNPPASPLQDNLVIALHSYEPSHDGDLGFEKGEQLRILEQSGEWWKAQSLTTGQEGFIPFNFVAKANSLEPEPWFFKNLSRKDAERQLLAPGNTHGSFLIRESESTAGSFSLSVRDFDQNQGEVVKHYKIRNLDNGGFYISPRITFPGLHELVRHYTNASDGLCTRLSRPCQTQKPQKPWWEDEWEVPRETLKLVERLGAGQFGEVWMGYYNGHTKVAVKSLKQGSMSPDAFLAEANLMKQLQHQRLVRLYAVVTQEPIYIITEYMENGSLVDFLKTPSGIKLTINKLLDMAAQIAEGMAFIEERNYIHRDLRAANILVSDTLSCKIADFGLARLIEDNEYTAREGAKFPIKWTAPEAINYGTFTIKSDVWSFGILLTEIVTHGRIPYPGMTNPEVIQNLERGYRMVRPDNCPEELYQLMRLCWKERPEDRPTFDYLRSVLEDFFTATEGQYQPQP

Compound: c1ccc(Oc2ccc(Nc3ncnc4ccccc34)cc2)cc1
IC50 [1]: < 8 nM

Compound: CC(C)(C)n1cc(-c2ccc(Cl)cc2)c2c(N)ncnc21
IC50 [1]: 220 nM

Compound: Cc1ccc(-c2nn(C(C)(C)C)c3ncnc(N)c23)cc1
IC50 (Jurkat [2]): 400 nM
IC50 (Jurkat [3]): 1200 nM

Compound: Nc1ncnc2c1c(-c1ccccc1Oc1ccccc1)cn2C1CCCC1
IC50 [1]: 390 nM
IC50 [6]: > 50000 nM

Now from value to compound:

IC50 [4]: 16 nM
IC50 [5]: 2 nM
IC50 (Protein kinase C (PKC)): > 33000 nM
IC50 [1]: < 1 nM
IC50 [6]: 1570 nM
IC50 [7]: 70 nM
IC50 [8]: > 50000 nM
IC50 [9]: > 50000 nM
IC50 (Jurkat [3]): 40 nM
IC50 [10]: 1070 nM
IC50 (Jurkat [11]): 1500 nM
Compound: Nc1ncnc2c1c(-c1ccc(Oc3ccccc3)cc1)cn2C1CCCC1

IC50 (Protein kinase C (PKC)): > 33000 nM
IC50 (Angiopoietin-1 receptor): 58.3 nM
IC50 [6]: 85 nM
IC50 [7]: 88 nM
IC50 [8]: > 50000 nM
IC50 [9]: > 50000 nM
IC50 (Jurkat [2]): 28 nM
IC50 (Jurkat [11]): 3000 nM
Compound: Nc1ncnc2c1c(-c1ccc(Oc3ccccc3)cc1)cn2C1CCC(O)C1 (stereo unspecified)

IC50 [7]: > 1000 nM
Compound: Nc1ncnc2c1c(-c1cccc(Oc3ccccc3)c1)cn2C1CCCC1
